Tests used:
Plutella xylostella = assay: Diamond backmoth leaf-dip test on cabbage leaves, mortality; format: in vivo; conditions: 3rd instar larvae, cabbage leaves dipped, recorded 72 hours after treatment, read-out: mortality in comparison with untreated controls
Experimental: The active compound was dissolved at the desired concentration in a mixture of 1:1 (vol:vol) distilled water: aceteone. Surfactant (Alkamuls® EL 620) was added at a rate of 0.1% (vol/vol). The test solution was prepared at the day of use.
Leaves of cabbage were dipped in test solution and air-dried. Treated leaves were placed in petri dishes lined with moist filter paper and inoculated with ten 3rd instar larvae. Mortality was recorded 72 hours after treatment. Feeding damages were also recorded using a scale of 0-100%.

Spodoptera eridiana = assay: Southern armyworm foliar spray test on lima bean plants, mortality; format: in vivo; conditions: 96 h, 2nd instar larvae, lima bean foliage sprayed, assessed 4 days after treatment, read-out: mortality in comparison with untreated controls
Experimental: The active compounds were formulated in cyclohexanone as a 10,000 ppm solution supplied in tubes. The tubes were inserted into an automated electrostatic sprayer equipped with an atomizing nozzle and they served as stock solutions for which lower dilutions were made in 50% acetone:50% water (v/v). A nonionic surfactant (Kinetic) was included in the solution at a volume of 0.01% (v/v).
Lima bean plants (variety Sieva) were grown 2 plants to a pot and selected for treatment at the 1st true leaf stage. Test solutions were sprayed onto the foliage by an automated electrostatic plant sprayer equipped with an atomizing spray nozzle. The plants were dried in the sprayer fume hood and then removed from the sprayer. Each pot was placed into perforated plastic bags with a zip closure. About 10 to 11 armyworm larvae were placed into the bag and the bags zipped closed. Test plants were maintained in a growth room at about 25° C. and about 20-40% relative humidity for 4 days, avoiding direct exposure to fluorescent light (24 hour photoperiod) to prevent trapping of heat inside the bags. Mortality and reduced feeding were assessed 4 days after treatment, compared to untreated control plants.

Question: What does the source list for `CNC(=O)CONC(=O)c1cc(Cl)cc(C)c1NC(=O)c1cnn(CC(F)(F)F)c1-c1ncccc1Cl` [Compound 1-1, 5-(3-chloro-pyridin-2-yl)-1-(2,2,2-trifluoro-ethyl)-1H-pyrazole-4-carboxylic acid (4-chloro-2-methyl-6-methylcarbamoylmethoxycarbamoyl-phenyl)-amide]?
Answer: mortality at 500 ppm (Plutella xylostella): 100%; mortality at 500 ppm (Spodoptera eridiana): 100%
